US20260202298A1, “HIGH-THROUGHPUT MEASUREMENT OF P[…] PARTICLE COUNTS, DISTRIBUTIONS, AND COMPOSITION” (priority 2021, published 2026)

How the values were obtained:
[1] = tested on: XUd (WT1) or PR8 (WT2) influenza viruses; format: cell-based, influenza virus in MDCK cells; conditions: at higher concentrations
[2] = tested on: A/PR8/34 or A/Ud/72 (with X31 or A/Aichi/68 HA) IAV; format: cell-based, influenza A virus in human lung epithelial cell line Calu3; conditions: FIG. 12B, PR8 and XUd viruses

Q: `CCOC(=O)C1=C[C@@H](OC(CC)CC)[C@H](NC(C)=O)[C@@H](N)C1` [oseltamivir] was tested. Which “effect on virion yield” value [1] did it give?
A: The value was “reduces virion yield”.

Q: What about the “size of individual virus particles” value [1] of the same compound?
A: Its value is “remains enriched in spherical particles”.

Q: And the virion aggregation [1]?
A: Its virion aggregation is “induces virion aggregation”.

Q: `COC(=O)OCOc1c2n(ccc1=O)N([C@@H]1c3ccccc3SCc3c1ccc(F)c3F)[C@@H]1COCCN1C2=O` [baloxavir, baloxavir marboxil] was tested. Which “virion yield vs. fraction of filamentous particles produced” value [2] did it give?
A: The value was “lower virion yields are associated with increased fraction of filamentous particles produced”.
